{
  "source": "paper PMC10518257",
  "about": "(Nature Cancer, 2023)",
  "key": {"Ba/F3-CCDC6::RET": {"test_system": "Ba/F3-CCDC6::RET", "experiment": "Growth inhibition assay in Ba/F3 cells (CellTiter-Glo, 72 h)", "assay_type": "cell-based"}, "Ba/F3-CCDC6::RET^S904F": {"test_system": "Ba/F3-CCDC6::RET^S904F", "experiment": "Growth inhibition assay in Ba/F3 cells (CellTiter-Glo, 72 h)", "assay_type": "cell-based"}, "Ba/F3-RET^M918T": {"test_system": "Ba/F3-RET^M918T", "experiment": "Growth inhibition assay in Ba/F3 cells (CellTiter-Glo, 72 h)", "assay_type": "cell-based", "settings": "Mus musculus, BaF3, 72 h, read-out: GI50 value (Mean ± SD), Ba/F3-RET^M918T, CellTiter-Glo, 72 h"}, "[1]": {"test_system": "Ba/F3 cells expressing KIF5B–RET^G810S", "experiment": "Growth inhibition assay in Ba/F3 cells (CellTiter-Glo, 72 h)", "assay_type": "cell-based", "settings": "replicate Sets 1-3"}, "TT cells (RET C634W)": {"test_system": "TT cells (RET C634W)", "experiment": "Dose-response western blotting, EC50 for inhibition of protein phosphorylation", "assay_type": "cell-based", "settings": "Homo sapiens"}, "LUAD-0002AS1 cells": {"test_system": "LUAD-0002AS1 cells", "experiment": "Growth inhibition (alamarBlue, 96 h)", "assay_type": "cell-based, human", "settings": "for raw viability signal (Source Data Fig. 3b-c): LUAD-0002AS1, replicate sets"}, "LUAD-0087AS2 cells": {"test_system": "LUAD-0087AS2 cells", "experiment": "Growth inhibition (alamarBlue, 96 h)", "assay_type": "cell-based, human", "settings": "for raw viability signal (Source Data Fig. 3b-c): LUAD-0087AS2, replicate sets"}, "ECLC5B cells": {"test_system": "ECLC5B cells", "experiment": "Growth inhibition (alamarBlue, 96 h)", "assay_type": "cell-based, human", "settings": "for raw viability signal (Source Data Fig. 3b-c): ECLC5B, replicates"}, "TT cells": {"test_system": "TT cells", "experiment": "Growth inhibition (alamarBlue, 96 h)", "assay_type": "cell-based, human", "settings": "for raw viability signal (Source Data Fig. 3b-c): replicate sets"}, "LUAD-0077AS1 PDX": {"test_system": "LUAD-0077AS1 PDX", "experiment": "PDX efficacy study", "assay_type": "in vivo, NSG mice", "set-up": "Tumor volume: unit not given here", "settings": "10 mg/kg BID"}, "[2]": {"settings": "Homo sapiens, 96 h, read-out: IC50 for Inhibition of Growth (95% CI)"}},
  "note": "Where “and” joins values, the source holds several entries; their conditions need not be identical. Identical values can stand only once. Like-named read-outs stand apart in the source and are kept apart here.",
  "data": [
    {"compound": "COc1ccc(CN2C3CC2CN(c2ccc(-c4cc(OCC(C)(C)O)cn5ncc(C#N)c45)cn2)C3)cn1", "note": "[Selpercatinib]", "values": [
      {"measurement": "GI50", "setting": "Ba/F3-CCDC6::RET; BaF3/CCDC6-RET, 72 h, read-out: GI50 value (Mean ± SD), Ba/F3-CCDC6::RET, CellTiter-Glo, 72 h", "value": "21.4 ± 7.5", "unit": "nM"},
      {"measurement": "GI50", "setting": "Ba/F3-CCDC6::RET; read-out: GI50 values, Ba/F3-CCDC6::RET, individual sets (replicate experiments)", "value": "13 nM and 27.4 nM"},
      {"measurement": "GI50", "setting": "Ba/F3-CCDC6::RET^S904F; Mus musculus, BaF3, 72 h, read-out: GI50 value (Mean ± SD), Ba/F3-CCDC6::RET^S904F, CellTiter-Glo, 72 h", "value": "4.76 ± 3.02", "unit": "nM"},
      {"measurement": "GI50", "setting": "Ba/F3-CCDC6::RET^S904F; read-out: GI50 values, Ba/F3-CCDC6::RET S904F, individual sets (replicate experiments)", "value": "4.25 nM and 8 nM and 2.03 nM"},
      {"measurement": "GI50", "setting": "Ba/F3-RET^M918T", "value": "1.24 ± 0.78", "unit": "nM"},
      {"measurement": "GI50", "setting": "[1]; Ba/3-KIF5B-RET-G810S", "value": "182 nM and 173 nM"},
      {"measurement": "GI50", "setting": "[1]; Mus musculus, BaF3, Ba/3-KIF5B-RET-G810S", "value": 143, "unit": "nM"},
      {"measurement": "EC50", "setting": "TT cells (RET C634W); read-out: EC50 for Inhibition of Protein Phosphorylation (95% CI), AKT S473, 2 h, densitometry", "value": 1.9, "unit": "nM"},
      {"measurement": "EC50", "setting": "TT cells (RET C634W); read-out: EC50 for Inhibition of Protein Phosphorylation (95% CI), ERK1/2 T202/Y204, 2 h, densitometry", "value": 0.2, "unit": "nM"},
      {"measurement": "EC50", "setting": "TT cells (RET C634W); read-out: EC50 for Inhibition of Protein Phosphorylation (95% CI), MEK1/2 S217/S221, 2 h, densitometry", "value": 1.9, "unit": "nM"},
      {"measurement": "EC50", "setting": "TT cells (RET C634W); read-out: EC50 for Inhibition of Protein Phosphorylation (95% CI), P70 RSK T421/S424, 2 h, densitometry", "value": 1.7, "unit": "nM"},
      {"measurement": "EC50", "setting": "TT cells (RET C634W); read-out: EC50 for Inhibition of Protein Phosphorylation (95% CI), RET Y905, 2 h, densitometry", "value": 11.8, "unit": "nM"},
      {"measurement": "EC50", "setting": "TT cells (RET C634W); read-out: EC50 for Inhibition of Protein Phosphorylation (95% CI), S6RP S235/S236, 2 h, densitometry", "value": 0.6, "unit": "nM"},
      {"measurement": "IC50", "setting": "LUAD-0002AS1 cells; [2]", "value": 3, "unit": "nM"},
      {"measurement": "raw viability signal (Source Data Fig. 3b-c)", "setting": "LUAD-0002AS1 cells; 0.01 nM", "value": "16631.5 and 13192.5 and 12693"},
      {"measurement": "raw viability signal (Source Data Fig. 3b-c)", "setting": "LUAD-0002AS1 cells; 0.1 nM", "value": "14296.3 and 14495.9 and 14138.2"},
      {"measurement": "raw viability signal (Source Data Fig. 3b-c)", "setting": "LUAD-0002AS1 cells; 1 nM", "value": "14160.4 and 9635.41 and 11277.7"},
      {"measurement": "raw viability signal (Source Data Fig. 3b-c)", "setting": "LUAD-0002AS1 cells; 10 nM", "value": "3799.84 and 3179.94 and 4108.28"},
      {"measurement": "raw viability signal (Source Data Fig. 3b-c)", "setting": "LUAD-0002AS1 cells; 100 nM", "value": "2188.78 and 2790.7 and 3166.11"},
      {"measurement": "raw viability signal (Source Data Fig. 3b-c)", "setting": "LUAD-0002AS1 cells; 1000 nM", "value": "1304.58 and 2278.18 and 2772.5"},
      {"measurement": "raw viability signal (Source Data Fig. 3b-c)", "setting": "LUAD-0002AS1 cells; 10000 nM", "value": "935.372 and 1860.61 and 2356.9"},
      {"measurement": "IC50", "setting": "LUAD-0087AS2 cells; [2]", "value": 11, "unit": "nM"},
      {"measurement": "raw viability signal (Source Data Fig. 3b-c)", "setting": "LUAD-0087AS2 cells; 0.01 nM", "value": "15388.6 and 12720.2"},
      {"measurement": "raw viability signal (Source Data Fig. 3b-c)", "setting": "LUAD-0087AS2 cells; 0.1 nM", "value": "16047 and 13628.3"},
      {"measurement": "raw viability signal (Source Data Fig. 3b-c)", "setting": "LUAD-0087AS2 cells; 1 nM", "value": "15441.4 and 12355.8"},
      {"measurement": "raw viability signal (Source Data Fig. 3b-c)", "setting": "LUAD-0087AS2 cells; 10 nM", "value": "6632.52 and 4277.26"},
      {"measurement": "raw viability signal (Source Data Fig. 3b-c)", "setting": "LUAD-0087AS2 cells; 100 nM", "value": "5690.09 and 3170.8"},
      {"measurement": "raw viability signal (Source Data Fig. 3b-c)", "setting": "LUAD-0087AS2 cells; 1000 nM", "value": "5599.27 and 2744.81"},
      {"measurement": "raw viability signal (Source Data Fig. 3b-c)", "setting": "LUAD-0087AS2 cells; 10000 nM", "value": "3412.76 and 2132.34"},
      {"measurement": "raw viability signal (Source Data Fig. 3b-c)", "setting": "ECLC5B cells; 0.01 nM", "value": "10363.9 and 7402.21 and 18274"},
      {"measurement": "raw viability signal (Source Data Fig. 3b-c)", "setting": "ECLC5B cells; 0.1 nM", "value": "11026.5 and 8834.98 and 20243.9"},
      {"measurement": "raw viability signal (Source Data Fig. 3b-c)", "setting": "ECLC5B cells; 1 nM", "value": "10668.5 and 7252.95 and 17721.9"},
      {"measurement": "raw viability signal (Source Data Fig. 3b-c)", "setting": "ECLC5B cells; 10 nM", "value": "3598.88 and 1351.95 and 6402.34"},
      {"measurement": "raw viability signal (Source Data Fig. 3b-c)", "setting": "ECLC5B cells; 100 nM", "value": "3342.11 and 1356.99 and 4729.16"},
      {"measurement": "raw viability signal (Source Data Fig. 3b-c)", "setting": "ECLC5B cells; 1000 nM", "value": "2886.96 and 1354.63 and 4277.75"},
      {"measurement": "raw viability signal (Source Data Fig. 3b-c)", "setting": "ECLC5B cells; 10000 nM", "value": "1612.7 and 1276.67 and 2944.43"},
      {"measurement": "IC50", "setting": "ECLC5B cells; [2]", "value": 5, "unit": "nM"},
      {"measurement": "raw viability signal (Source Data Fig. 3b-c)", "setting": "TT cells; 0.01 nM", "value": "21887.2 and 26414 and 26210.1 and 12272.3 and 26926.8"},
      {"measurement": "raw viability signal (Source Data Fig. 3b-c)", "setting": "TT cells; 0.1 nM", "value": "22325.8 and 26539.8 and 30465.8 and 11158.3 and 24677.4"},
      {"measurement": "raw viability signal (Source Data Fig. 3b-c)", "setting": "TT cells; 1 nM", "value": "20930 and 26176.3 and 29470 and 9614.13 and 22745.1"},
      {"measurement": "raw viability signal (Source Data Fig. 3b-c)", "setting": "TT cells; 10 nM", "value": "15380.3 and 24600.1 and 21198.9 and 8183.69 and 18775.6"},
      {"measurement": "raw viability signal (Source Data Fig. 3b-c)", "setting": "TT cells; 100 nM", "value": "9716.19 and 12690.1 and 13114.5 and 5163.1 and 15418.2"},
      {"measurement": "raw viability signal (Source Data Fig. 3b-c)", "setting": "TT cells; 1000 nM", "value": "9549.4 and 11696.3 and 12426 and 4648.23 and 14095"},
      {"measurement": "raw viability signal (Source Data Fig. 3b-c)", "setting": "TT cells; 10000 nM", "value": "9076.49 and 11812.8 and 14226.5 and 5846.11 and 12620.2"},
      {"measurement": "IC50", "setting": "TT cells; [2]", "value": 23, "unit": "nM"},
      {"measurement": "Area Under Curve Mean", "setting": "LUAD-0077AS1 PDX; Fig. 6b LUAD-0077AS1 tumor growth", "value": -23},
      {"measurement": "Change in tumor volume (block without heading, Fig. 6b)", "setting": "LUAD-0077AS1 PDX; LUAD-0077AS1, individual animals", "value": "38.5614 and 19.1252 and 18.7579 and 13.1905 and -24.8651"},
      {"measurement": "Tumor volume", "setting": "LUAD-0077AS1 PDX; LUAD-0077AS1, treatment day 0, individual animals", "value": "87.11 (3×) and 85.5 and 88.7"},
      {"measurement": "Tumor volume", "setting": "LUAD-0077AS1 PDX; LUAD-0077AS1, treatment day 4, individual animals", "value": "68.07 (2×) and 74.9 and 73.54 and 70.82"}
    ]}
  ]
}
